The source of these data is patent publication US20210206770A1, “Co-Crystal of an Orally Available Janus Kinase Inhibitor” (Sandoz AG, priority 2017, published 2021).

Each structure is given as a SMILES string.

For series [1] the following is noted: EPAR, cited from earlier work.
Series [2] is described as follows: Dissolution testing, Experiment 2: photometric (310 nm) dissolution in phosphate buffer pH 6.8. Type of series: physicochemical. The settings on record: 50 mL phosphate buffer pH 6.8, 0.01% Tween 80, 37° C. The procedure:
We used this to quantify baricitinib concentrations. Light absorption was measured with a Shimadzu UV-1800 double beam photometer at 310 nm in a lcm quartz glass cuvette.
To counterbalance the acidifying effect of the lactic acid from the barcitinib lactic acid co-crystal, the experiments were performed in a phosphate buffer solution at a constant pH of 6.8 ([…]; 0.01 mol/L). Furthermore, 0.01% Tween 80 was added to the buffer solution in order to avoid potential agglomeration during the dissolution test.
Experiment 2: 20 mg of crystalline baricitinib free base Form A or 24.85 mg of the baricitinib lactic acid co-crystal of the present invention were stirred in a closed vessel in 50 mL of the buffer solution at 37° C. After 1, 5, 10, 15, 20, 30, 45 and 75 minutes filtered samples of the suspension were taken and diluted 1:4 with buffer solution to reach an absorption value within the calibration curve.

Series [3] in a line: Differential scanning calorimetry (thermal stability). Type of series: physicochemical. The settings on record: heating rate 10 K/min, up to melting at about 168-170° C. The procedure: The baricitinib lactic acid co-crystal according to the present invention was investigated by DSC, which was performed with a DSC 7 (Perkin-Elmer, Norwalk, Conn., USA) using a Pyris 2.0 software. Approximately 4±0.0005 mg sample (using a UM3 ultramicrobalance, Mettler, Greifensee, CH) were weighed into Al-Pans (25 μl) and sealed with a cover, which was perforated by a needle. Dry nitrogen was used as the purge gas (purge: 20 ml/min). Heating rate: 10 K/min.
A general note: Differential scanning calorimetry records heat flow against a reference as temperature is scanned.

Series [4] is described as follows: Dissolution testing, Experiment 1: stirring in water at room temperature. Type of series: physicochemical. As to conditions: 5 mg Form A or same molar amount of co-crystal stirred at room temperature in 100 ml water. An excerpt:
Experiment 1 clearly indicated significant and faster dissolution of the barcitinib lactic acid co-crystal of the invention compared to pure cristallin baritinib form A. However, no quantitative data could be derived from this setup.

Consider `CCS(=O)(=O)N1CC(CC#N)(n2cc(-c3ncnc4[nH]ccc34)cn2)C1` [baricitinib, 2-[1-(Ethylsulfonyl)-3-[4-(7H-pyrrolo[2,3-d]pyrimidin-4-yl)-1H-pyrazol-1-yl]azetidin-3-yl]acetonitrile], for which the “solubility in 0.1 N HCl” value in series [1] (0.1 N HCl) was “only slightly soluble”. Further, the solubility in water entry in series [1] (water) is listed as “practically insoluble”.

For `CCS(=O)(=O)N1CC(CC#N)(n2cc(-c3ncnc4[nH]ccc34)cn2)C1` [baricitinib lactic acid co-crystal], in series [2] (1 minute), the “concentration of dissolved baricitinib at 1 minute compared to baricitinib free base form A” value is on record as “three time higher”. Further, in series [2] (FIG. 7), the “dissolution rate compared to baricitinib free base form A” value is “dissolved more quickly”. In addition, the “thermal stability (DSC)” value in series [3] was “neither phase changes nor desolvation events are detectable until the sample melts”. The dissolution in water result in series [4] was “a detectable and significant amount dissolved within minutes”.

Consider `CCS(=O)(=O)N1CC(CC#N)(n2cc(-c3ncnc4[nH]ccc34)cn2)C1` [baricitinib free base Form A, 2-[1-(Ethylsulfonyl)-3-[4-(7H-pyrrolo[2,3-d]pyrimidin-4-yl)-1H-pyrazol-1-yl]azetidin-3-yl]acetonitrile, reference compound], for which the dissolution in water entry in series [4] was “no detectable dissolution”.
